Data on four molecules can be found in patent publication US20250197417A1, “CRYSTALLINE INTERMEDIATES” (QBIOTICS PTY LTD, priority 2021, published 2025).

The nature of data set [1]: Crystallization study, preliminary solvent screening (solubility comments). The format is physicochemical. The source says: An aliquot of purified compound of formula (Ia) obtained from Example 4 (0.83 L containing about 10 g of compound) was used in the crystallization study.
A short description of data set [2]: Storage stability of crystalline forms of compound of formula (Ia). It is filed as physicochemical. Here is the method: Form A of the crystalline anhydrous Compound of formula (Ia) was stable for at least 9 months in industrial packaging (Type III amber glass vial (10 mL) closed by a black plastic screw cap with polyethylene stoppers) at 25° C. and 60% relative humidity and as a free crystalline powder at 80° C. and 60% humidity for 24 hours.
The anhydrous crystalline Form B was characterized by an X-ray powder diffraction (X-RPD) pattern obtained using the copper wavelengths λ1 and λ2 of 1.54056 Å and 1.54439 Å showing a crystalline structure and comprising distinctive reflections, expressed as 20 degrees values, at 4.9, 8.5, 9.8, 11.4, 14.6, 16.5, 17.5, 19.5, 21.4, 27.7, 28.7±0.2 degrees 2θ.

On to `CC1=CC2[C@]3(O)C(C4C(C)(C)[C@]4(O)[C@H](O)[C@H]3C)[C@@H]3O[C@@]34COC(C)(C)O[C@H]4[C@]2(O)C1=O` (stereo partly shown) [Compound of formula (Ia)], for which the “Comment (solubility)” value in data set [1] (2-Propanol, 5 V → 10 V, 20-25° C. → reflux, remained dissolved) was “Remained”; in data set [1] (Acetone, 5 V → 10 V, 20-25° C. → reflux, soluble only with 10 V of acetone at reflux), “Soluble only”; in data set [1] (Acetonitrile, 5 V → 10 V, 20-25° C. → reflux, dissolution observed at reflux), “Dissolution”; in data set [1] (Dimethylformamide, 5 V → 10 V, 20-25° C., soluble only with 10 V of DMF), “Soluble only”; in data set [1] (Ethyl acetate, 5 V → 10 V, 20-25° C., remained dissolved), “Remained”; in data set [1] (Methyl tert-butyl ether, 5 V → 20 V, 20-25° C. → reflux) it was “Not soluble”.

Consider `CC1=CC2[C@]3(O)C(C4C(C)(C)[C@]4(O)[C@H](O)[C@H]3C)[C@@H]3O[C@@]34COC(C)(C)O[C@H]4[C@]2(O)C1=O` (stereo partly shown) [Form A], for which the “stable (storage time)” value in data set [2] (free crystalline powder, 80° C. and 60% humidity) was 24 h; in data set [2] (industrial packaging (Type III amber glass vial, 10 mL, screw cap with polyethylene stoppers), 25° C. and 60% relative humidity) it was “at least 9 months”. Moreover, the “solid form change upon storage” value is “transformed into a dihydrate form” in data set [2] (storage at 5° C. for 5 days); “a new stable anhydrous crystalline form was formed, Form B” in data set [2] (storage at 25° C. at 80% relative humidity for 68 hours); “a new stable anhydrous crystalline form was formed, Form B” in data set [2] (storage at 40° C. at 80% relative humidity for 7 days).

On to `CC1=CC2[C@]3(O)C(C4C(C)(C)[C@]4(O)[C@H](O)[C@H]3C)[C@@H]3O[C@@]34COC(C)(C)O[C@H]4[C@]2(O)C1=O` (stereo partly shown) [Form B], for which the “stable unchanged (further storage time)” value in data set [2] (25° C. at 80% relative humidity) is given as no less than 7 days.

As to `CC1=CC2[C@]3(O)C(C4C(C)(C)[C@]4(O)[C@H](O)[C@H]3C)[C@@H]3O[C@@]34COC(C)(C)O[C@H]4[C@]2(O)C1=O` (stereo partly shown) [dihydrate form], the “solid form change upon storage” value in data set [2] (storage at 25° C. and 80% relative humidity for 5 days) is “transformed back to Form A”.
